Literature values, collected in patent US20060128805A1, “Methods of treating erythropoietin-resistance” (priority 2004, published 2006).

Details: within the first hour of oral administration

Cc1c(O)c(=O)ccn1C [deferiprone, 1,2-dimethyl-3-hydroxy-pyrid-4-one]
mean increase in plasma aluminum: about 90%
